Results from ChEMBL document CHEMBL1158606, “Synthesis and molecular modeling studies of 3-chloro-4-substituted-1-(8-hydroxy-quinolin-5-yl)-azetidin-2-ones as novel anti-filarial agents” (2010).
The source made the active and inactive calls. No cut-off for these calls is given here.

How the values were obtained:
Assay type in all cases: functional
[1] = test system: Brugia malayi; experiment: Antifilarial activity against Brugia malayi assessed as loss of motility at 100 ng/ml after 48 hrs by MTT assay
[2] = test system: Brugia malayi; experiment: Antifilarial activity against Brugia malayi assessed as loss of motility at 20 ng/ml after 48 hrs by MTT assay
[3] = test system: Brugia malayi; experiment: Antifilarial activity against Brugia malayi assessed as loss of motility at 60 ng/ml after 48 hrs by MTT assay
[4] = test system: Brugia malayi; experiment: Antifilarial activity against Brugia malayi assessed as loss of motility at 40 ng/ml after 48 hrs by MTT assay
[5] = test system: Brugia malayi; experiment: Antifilarial activity against Brugia malayi assessed as loss of motility at 80 ng/ml after 48 hrs by MTT assay

Structure (SMILES) | Activity [1] | Activity [2] | Activity [3] | Activity [4] | Activity [5]
O=C1C(Cl)C(c2ccc(F)cc2)N1c1ccc(O)c2ncccc12 (stereo not given) | 37% | inactive | 12% | inactive | 26%
O=C1C(Cl)C(c2ccc(Cl)cc2)N1c1ccc(O)c2ncccc12 (stereo not given) | 59% | inactive | 19% | 10% | 36%
CC1C(Cl)C(=O)N1c1ccc(O)c2ncccc12 (stereo not given) | 81% | 53% | 67% | 61% | 76%
O=C1C(Cl)C(c2ccccc2)N1c1ccc(O)c2ncccc12 (stereo not given) | 2% | inactive | inactive | inactive | 2%
COc1ccc(C2C(Cl)C(=O)N2c2ccc(O)c3ncccc23)cc1 (stereo not given) | 91% | 67% | 91% | 76% | 91%
O=C1C(Cl)C(c2ccc(Br)cc2)N1c1ccc(O)c2ncccc12 (stereo not given) | 23% | inactive | 3% | inactive | 16%
